# Experiments:
# [1] = Antifungal activity against Cryptococcus gattii SCZ20024 assessed as fungal growth inhibition incubated for 48 hrs by broth microdilution method; type: functional, Cryptococcus gattii VGI
# Candida albicans [2] = experiment: Antifungal activity against Candida albicans 337 assessed as fungal growth inhibition incubated for 48 hrs by broth microdilution method; type: functional
# Nakaseomyces glabratus [3] = experiment: Antifungal activity against Candida glabrata 201 assessed as fungal growth inhibition incubated for 48 hrs by broth microdilution method; type: functional
# Cryptococcus neoformans [4] = experiment: Antifungal activity against Cryptococcus neoformans SH68 assessed as fungal growth inhibition incubated for 48 hrs by broth microdilution method; type: functional
# Cryptococcus neoformans [5] = experiment: Antifungal activity against Cryptococcus neoformans HN1 assessed as fungal growth inhibition incubated for 48 hrs by broth microdilution method; type: functional
# Pichia kudriavzevii [6] = experiment: Antifungal activity against Candida krusei 477 assessed as fungal growth inhibition incubated for 48 hrs by broth microdilution method; type: functional
# [Candida] auris [7] = Antifungal activity against Candida auris 888 assessed as fungal growth inhibition incubated for 48 hrs by broth microdilution method; type: functional; details: Candidozyma auris
# Nakaseomyces glabratus [8] = experiment: Antifungal activity against Candida glabrata 205 assessed as fungal growth inhibition incubated for 48 hrs by broth microdilution method; type: functional
# Candida parapsilosis [9] = experiment: Antifungal activity against Candida parapsilosis ATCC22019 assessed as fungal growth inhibition incubated for 48 hrs by broth microdilution method; type: functional; details: Lodderomyces parapsilosis
# [Candida] auris [10] = Antifungal activity against Candida auris 887 assessed as fungal growth inhibition incubated for 48 hrs by broth microdilution method; type: functional; details: Candidozyma auris
# Candida parapsilosis [11] = experiment: Antifungal activity against Candida parapsilosis 104 assessed as fungal growth inhibition incubated for 48 hrs by broth microdilution method; type: functional; details: Lodderomyces parapsilosis
# [12] = Cytotoxicity against human Caco-2 cells assessed as cell growth inhibition incubated for 24 hrs by CCK8 assay; type: toxicity, cell-based
# Candida tropicalis [13] = experiment: Antifungal activity against Candida tropicalis 172 assessed as fungal growth inhibition incubated for 48 hrs by broth microdilution method; type: functional
# Cryptococcus neoformans [14] = experiment: Antifungal activity against Cryptococcus neoformans HN20 assessed as fungal growth inhibition incubated for 48 hrs by broth microdilution method; type: functional
# [Candida] auris [15] = Antifungal activity against Candida auris 278 assessed as fungal growth inhibition incubated for 48 hrs by broth microdilution method; type: functional; details: Candidozyma auris
# Nakaseomyces glabratus [16] = experiment: Antifungal activity against Candida glabrata 202 assessed as fungal growth inhibition incubated for 48 hrs by broth microdilution method; type: functional
# [17] = Antifungal activity against Cryptococcus gattii WM178 assessed as fungal growth inhibition incubated for 48 hrs by broth microdilution method; type: functional, Cryptococcus gattii VGI
# Aspergillus fumigatus [18] = experiment: Antifungal activity against Aspergillus fumigatus 7544 assessed as fungal growth inhibition incubated for 48 hrs by broth microdilution method; type: functional
# Cryptococcus neoformans [19] = experiment: Antifungal activity against Cryptococcus neoformans HN2 assessed as fungal growth inhibition incubated for 48 hrs by broth microdilution method; type: functional
# [20] = Antifungal activity against Cryptococcus gattii E566 assessed as fungal growth inhibition incubated for 48 hrs by broth microdilution method; type: functional, Cryptococcus gattii VGI
# Cryptococcus neoformans [21] = experiment: Antifungal activity against Cryptococcus neoformans HN2-40 assessed as fungal growth inhibition incubated for 48 hrs by broth microdilution method; type: functional
# Nakaseomyces glabratus [22] = experiment: Antifungal activity against Candida glabrata 222 assessed as fungal growth inhibition incubated for 48 hrs by broth microdilution method; type: functional
# Aspergillus fumigatus [23] = experiment: Antifungal activity against Aspergillus fumigatus 023-12 assessed as fungal growth inhibition incubated for 48 hrs by broth microdilution method; type: functional
# Cryptococcus neoformans [24] = experiment: Antifungal activity against Cryptococcus neoformans 443 assessed as fungal growth inhibition incubated for 48 hrs by broth microdilution method; type: functional
# Pichia kudriavzevii [25] = experiment: Antifungal activity against Candida krusei 69 assessed as fungal growth inhibition incubated for 48 hrs by broth microdilution method; type: functional
# Candida parapsilosis [26] = experiment: Antifungal activity against Candida parapsilosis 107 assessed as fungal growth inhibition incubated for 48 hrs by broth microdilution method; type: functional; details: Lodderomyces parapsilosis
# Candida parapsilosis [27] = experiment: Antifungal activity against Candida parapsilosis 125 assessed as fungal growth inhibition incubated for 48 hrs by broth microdilution method; type: functional; details: Lodderomyces parapsilosis
# Cryptococcus neoformans [28] = experiment: Antifungal activity against Cryptococcus neoformans H99 assessed as fungal growth inhibition incubated for 48 hrs by broth microdilution method; type: functional
# Candida albicans [29] = experiment: Antifungal activity against Candida albicans 25 assessed as fungal growth inhibition incubated for 48 hrs by broth microdilution method; type: functional
# Nakaseomyces glabratus [30] = experiment: Antifungal activity against Candida glabrata 204 assessed as fungal growth inhibition incubated for 48 hrs by broth microdilution method; type: functional
# Pichia kudriavzevii [31] = experiment: Antifungal activity against Candida krusei 472 assessed as fungal growth inhibition incubated for 48 hrs by broth microdilution method; type: functional
# Aspergillus fumigatus [32] = experiment: Antifungal activity against Aspergillus fumigatus A assessed as fungal growth inhibition incubated for 48 hrs by broth microdilution method; type: functional
# Candida tropicalis [33] = experiment: Antifungal activity against Candida tropicalis 176 assessed as fungal growth inhibition incubated for 48 hrs by broth microdilution method; type: functional
# Cryptococcus neoformans [34] = experiment: Antifungal activity against Cryptococcus neoformans 445 assessed as fungal growth inhibition incubated for 48 hrs by broth microdilution method; type: functional
# [35] = Antifungal activity against Cryptococcus gattii SCZ20031 assessed as fungal growth inhibition incubated for 48 hrs by broth microdilution method; type: functional, Cryptococcus gattii VGI
# Pichia kudriavzevii [36] = experiment: Antifungal activity against Candida krusei 68 assessed as fungal growth inhibition incubated for 48 hrs by broth microdilution method; type: functional
# [Candida] auris [37] = Antifungal activity against Candida auris 277 assessed as fungal growth inhibition incubated for 48 hrs by broth microdilution method; type: functional; details: Candidozyma auris
# Candida albicans [38] = experiment: Antifungal activity against Candida albicans 22 assessed as fungal growth inhibition incubated for 48 hrs by broth microdilution method; type: functional
# [Candida] auris [39] = Antifungal activity against Candida auris 276 assessed as fungal growth inhibition incubated for 48 hrs by broth microdilution method; type: functional; details: Candidozyma auris
# Candida albicans [40] = experiment: Antifungal activity against Candida albicans 338 assessed as fungal growth inhibition incubated for 48 hrs by broth microdilution method; type: functional
# [41] = Antifungal activity against Cryptococcus gattii WM179 assessed as fungal growth inhibition incubated for 48 hrs by broth microdilution method; type: functional, Cryptococcus gattii VGI
# Pichia kudriavzevii [42] = experiment: Antifungal activity against Candida krusei 471 assessed as fungal growth inhibition incubated for 48 hrs by broth microdilution method; type: functional
# Cryptococcus neoformans [43] = experiment: Antifungal activity against Cryptococcus neoformans HN17 assessed as fungal growth inhibition incubated for 48 hrs by broth microdilution method; type: functional
# Candida tropicalis [44] = experiment: Antifungal activity against Candida tropicalis 178 assessed as fungal growth inhibition incubated for 48 hrs by broth microdilution method; type: functional
# Cryptococcus neoformans [45] = experiment: Antifungal activity against Cryptococcus neoformans 56992 assessed as fungal growth inhibition incubated for 48 hrs by broth microdilution method; type: functional
# Candida tropicalis [46] = experiment: Antifungal activity against Candida tropicalis 184 assessed as fungal growth inhibition incubated for 48 hrs by broth microdilution method; type: functional
# Pichia kudriavzevii [47] = experiment: Antifungal activity against Candida krusei 474 assessed as fungal growth inhibition incubated for 48 hrs by broth microdilution method; type: functional
# Candida albicans [48] = experiment: Antifungal activity against Candida albicans 21 assessed as fungal growth inhibition incubated for 48 hrs by broth microdilution method; type: functional
# Candida tropicalis [49] = experiment: Antifungal activity against Candida tropicalis 177 assessed as fungal growth inhibition incubated for 48 hrs by broth microdilution method; type: functional
# Cryptococcus neoformans [50] = experiment: Antifungal activity against Cryptococcus neoformans 444 assessed as fungal growth inhibition incubated for 48 hrs by broth microdilution method; type: functional
# Candida tropicalis [51] = experiment: Antifungal activity against Candida tropicalis 182 assessed as fungal growth inhibition incubated for 48 hrs by broth microdilution method; type: functional
# Cryptococcus neoformans [52] = experiment: Antifungal activity against Cryptococcus neoformans HN19 assessed as fungal growth inhibition incubated for 48 hrs by broth microdilution method; type: functional
# [Candida] auris [53] = Antifungal activity against Candida auris CBS 12372 assessed as fungal growth inhibition incubated for 48 hrs by broth microdilution method; type: functional; details: Candidozyma auris
compound,measurement,setting,value
CCN(CC)c1ccc(C(NC(=O)C(C)C)c2ccc3cccnc3c2O)cc1 (stereo unspecified),MIC,[1],0.031 µg/mL
same,MIC,Candida albicans [2],0.032 µg/mL
same,MIC,Nakaseomyces glabratus [3],0.032 µg/mL
same,MIC,Cryptococcus neoformans [4],< 0.016 µg/mL
same,MIC,Cryptococcus neoformans [5],0.063 µg/mL
same,MIC,Pichia kudriavzevii [6],0.125 µg/mL
same,MIC,[Candida] auris [7],0.25 µg/mL
same,MIC,Nakaseomyces glabratus [8],0.125 µg/mL
same,MIC,Candida parapsilosis [9],0.125 µg/mL
same,MIC,[Candida] auris [10],0.25 µg/mL
same,MIC,Candida parapsilosis [11],0.016 µg/mL
same,IC50 at 24 h,[12],72.6 µg/mL
same,MIC,Candida tropicalis [13],0.063 µg/mL
same,MIC,Cryptococcus neoformans [14],0.016 µg/mL
same,MIC,[Candida] auris [15],0.125 µg/mL
same,MIC,Nakaseomyces glabratus [16],0.032 µg/mL
same,MIC,[17],0.031 µg/mL
same,MIC,Aspergillus fumigatus [18],1 µg/mL
same,MIC,Cryptococcus neoformans [19],0.063 µg/mL
same,MIC,[20],0.031 µg/mL
same,MIC,Cryptococcus neoformans [21],< 0.016 µg/mL
same,MIC,Nakaseomyces glabratus [22],0.125 µg/mL
same,MIC,Aspergillus fumigatus [23],0.5 µg/mL
same,MIC,Cryptococcus neoformans [24],0.016 µg/mL
same,MIC,Pichia kudriavzevii [25],0.125 µg/mL
same,MIC,Candida parapsilosis [26],0.125 µg/mL
same,MIC,Candida parapsilosis [27],0.125 µg/mL
same,MIC,Cryptococcus neoformans [28],0.125 µg/mL
same,MIC,Candida albicans [29],0.063 µg/mL
same,MIC,Nakaseomyces glabratus [30],0.016 µg/mL
same,MIC,Pichia kudriavzevii [31],0.125 µg/mL
same,MIC,Aspergillus fumigatus [32],0.5 µg/mL
same,MIC,Candida tropicalis [33],0.016 µg/mL
same,MIC,Cryptococcus neoformans [34],0.016 µg/mL
same,MIC,[35],0.031 µg/mL
same,MIC,Pichia kudriavzevii [36],0.032 µg/mL
same,MIC,[Candida] auris [37],0.063 µg/mL
same,MIC,Candida albicans [38],0.063 µg/mL
same,MIC,[Candida] auris [39],0.063 µg/mL
same,MIC,Candida albicans [40],0.063 µg/mL
same,MIC,[41],0.031 µg/mL
same,MIC,Pichia kudriavzevii [42],0.032 µg/mL
same,MIC,Cryptococcus neoformans [43],0.063 µg/mL
same,MIC,Candida tropicalis [44],0.032 µg/mL
same,MIC,Cryptococcus neoformans [45],0.032 µg/mL
same,MIC,Candida tropicalis [46],0.125 µg/mL
same,MIC,Pichia kudriavzevii [47],0.125 µg/mL
same,MIC,Candida albicans [48],≤ 0.125 µg/mL
same,MIC,Candida tropicalis [49],0.125 µg/mL
same,MIC,Cryptococcus neoformans [50],0.016 µg/mL
same,MIC,Candida tropicalis [51],0.125 µg/mL
same,MIC,Cryptococcus neoformans [52],0.063 µg/mL
same,MIC,[Candida] auris [53],0.063 µg/mL
OC(Cn1cncn1)(Cn1cncn1)c1ccc(F)cc1F [FLUCONAZOLE],MIC,[1],4 µg/mL
same,MIC,Candida albicans [2],0.25 µg/mL
same,MIC,Nakaseomyces glabratus [3],1 µg/mL
same,MIC,Cryptococcus neoformans [4],8 µg/mL
same,MIC,Cryptococcus neoformans [5],4 µg/mL
same,MIC,Pichia kudriavzevii [6],0.25 µg/mL
same,MIC,[Candida] auris [7],> 64 µg/mL
same,MIC,Nakaseomyces glabratus [8],1 µg/mL
same,MIC,Candida parapsilosis [9],0.5 µg/mL
same,MIC,[Candida] auris [10],> 64 µg/mL
same,MIC,Candida parapsilosis [11],0.5 µg/mL
same,IC50 at 24 h,[12],> 64 µg/mL
same,MIC,Candida tropicalis [13],0.125 µg/mL
same,MIC,Cryptococcus neoformans [14],2 µg/mL
same,MIC,[Candida] auris [15],> 64 µg/mL
same,MIC,Nakaseomyces glabratus [16],1 µg/mL
same,MIC,[17],4 µg/mL
same,MIC,Aspergillus fumigatus [18],> 64 µg/mL
same,MIC,Cryptococcus neoformans [19],4 µg/mL
same,MIC,[20],2 µg/mL
same,MIC,Cryptococcus neoformans [21],8 µg/mL
same,MIC,Nakaseomyces glabratus [22],1 µg/mL
same,MIC,Aspergillus fumigatus [23],> 64 µg/mL
same,MIC,Cryptococcus neoformans [24],8 µg/mL
same,MIC,Pichia kudriavzevii [25],0.25 µg/mL
same,MIC,Candida parapsilosis [26],> 64 µg/mL
same,MIC,Candida parapsilosis [27],> 64 µg/mL
same,MIC,Cryptococcus neoformans [28],8 µg/mL
same,MIC,Candida albicans [29],0.5 µg/mL
same,MIC,Nakaseomyces glabratus [30],1 µg/mL
same,MIC,Pichia kudriavzevii [31],> 64 µg/mL
same,MIC,Aspergillus fumigatus [32],> 64 µg/mL
same,MIC,Candida tropicalis [33],2 µg/mL
same,MIC,Cryptococcus neoformans [34],8 µg/mL
same,MIC,[35],4 µg/mL
same,MIC,Pichia kudriavzevii [36],0.25 µg/mL
same,MIC,[Candida] auris [37],4 µg/mL
same,MIC,Candida albicans [38],0.5 µg/mL
same,MIC,[Candida] auris [39],2 µg/mL
same,MIC,Candida albicans [40],0.5 µg/mL
same,MIC,[41],4 µg/mL
same,MIC,Pichia kudriavzevii [42],> 64 µg/mL
same,MIC,Cryptococcus neoformans [43],16 µg/mL
same,MIC,Candida tropicalis [44],2 µg/mL
same,MIC,Cryptococcus neoformans [45],4 µg/mL
same,MIC,Candida tropicalis [46],2 µg/mL
same,MIC,Pichia kudriavzevii [47],> 64 µg/mL
same,MIC,Candida albicans [48],0.5 µg/mL
same,MIC,Candida tropicalis [49],2 µg/mL
same,MIC,Cryptococcus neoformans [50],8 µg/mL
same,MIC,Candida tropicalis [51],0.125 µg/mL
same,MIC,Cryptococcus neoformans [52],8 µg/mL
same,MIC,[Candida] auris [53],> 64 µg/mL
